Data published in patent US20090048182A1, “Cosmetic Use of at Least One Natural Ac-N-Ser-Asp-Lys-Pro-Tetrapeptide or One of Its Analogues as Agent for Slowing Down Loss of Hair and/or Stimulating Hair Growth” (CENTRE NATIONAL DE LA RECHERCHE SCIENTIFQUE (CNRS, priority 2005, published 2009).
Residues, ends and D or L forms follow the SMILES beside them.

How the values were obtained:
[1] = tested on: cells in mitosis (Ki67) in the epithelial sheath of hair; experiment: Cell proliferation: anti-Ki67 immunolabeling of cells in mitosis along the epithelial sheath of isolated hairs; assay type: cell-based, human
Experimental: (§1) Study of the stimulating activity of tetrapeptide AcSDKP on the growth of isolated hairs maintained in a state of ex vivo survival. This study was conducted on 66 human hair explants obtained from scalp-plasty.
(§2) Hairs comprised of hair follicles were isolated by micro dissection and individually placed in wells (96-well culture plate) and maintained in survival for 15 days under conventional tissue culturing conditions (37° C., 5% CO2) in Williams medium.
(§3) Tetrapeptide AcSDKP added to the culture medium was tested at three concentrations: 10^−4 M, 10^−7 M and 10^−10 M. Minoxidil® (2,4-diamino 6-piperidinopyrimidine 3-oxide) at a concentration of 10^−5 M was used as a positive control.
(§4) Culture mediums containing the compounds to be tested were renewed every three days.
(§5) On D8 and D15 of treatment, six hairs from each batch (untreated control, Minoxidil®, +AcSDKP 10^−4 M, +AcSDKP 10^−7 M, +AcSDKP 10^−10 M) were removed and prepared for histological study.
(§6) Three explants from each batch were fixed in ordinary Bouin and the three other hairs were frozen and stored at −80° C.
(§7) In addition to measurements of the length of each hair, the general morphology of each hair was analysed and the expression of laminin 5 and collagen IV, two constituents of the basal membrane, was evaluated. Moreover, immunolabeling with anti-Ki67 antibodies (nuclear protein expressed in growing cells) was carried out of cells in mitosis in order to establish the mitotic index of follicle structures.
This study was conducted on cuts of frozen hairs.

keratin 19 (CK19) = experiment: Immunolabeling of keratin 19 (CK19), epithelial stem cell marker, on frozen cuts of isolated hairs; assay type: cell-based, human
Experimental: as §1, §2, §3, §4, §5, §6
Immunolabeling of keratin 19 (CK19) was carried out on frozen cuts of control hairs and hairs treated with AcSDKP or Minoxidil® in order to evaluate the proportion of undifferentiated primitive cells (or even stem cells) present in the external epithelial sheaths of the hair follicles. […]

[2] = tested on: neo-keratinocytes / epithelial sheaths of isolated hairs; experiment: General morphology of histological cuts of isolated hairs (Masson Trichromium): neo-keratinocytes, epithelial sheaths; assay type: cell-based, human
Experimental: as §1, §2, §3, §4, §5, §6, §7
Analysis of the general morphology of histological cuts stained with Masson Trichromium focusing on the area between the opening of the sebaceous glands and the hair bulb.
Hairs cultured on D0 naturally undergo changes during survival as is observed after an in vivo graft. The restructuring effect of AcSDKP was visualised through the appearance of neo-keratinocytes along the conjunctival sheath which migrate from the bulge and to a lesser extent from the bulb, two regions where stem cells are found. […] This effect leads to clear appearance of neo-keratinocytes along the length of the hair, from the epidermis to the bulb. The structure of the neo-keratinocytes formed in this way is uniform and stratified. It varies as a function of treatment time and AcSDKP concentration. The clearest activity was found on D15 of treatment with AcSDKP at 10^−10 M.

laminin 5 = experiment: Immunolabelling of laminin 5 in isolated hairs; assay type: cell-based, human
Experimental: Study of the stimulating activity of tetrapeptide AcSDKP on the growth of isolated hairs maintained in a state of ex vivo survival. This study was conducted on 66 human hair explants obtained from scalp-plasty. Hairs comprised of hair follicles were isolated by micro dissection and individually placed in wells (96-well culture plate) and maintained in survival for 15 days under conventional tissue culturing conditions (37° C., 5% CO2) in Williams medium. Tetrapeptide AcSDKP added to the culture medium was tested at three concentrations: 10^−4 M, 10^−7 M and 10^−10 M. Minoxidil® (2,4-diamino 6-piperidinopyrimidine 3-oxide) at a concentration of 10^−5 M was used as a positive control. Culture mediums containing the compounds to be tested were renewed every three days. On D8 and D15 of treatment, six hairs from each batch (untreated control, Minoxidil®, +AcSDKP 10^−4 M, +AcSDKP 10^−7 M, +AcSDKP 10^−10 M) were removed and prepared for histological study. Three explants from each batch were fixed in ordinary Bouin and the three other hairs were frozen and stored at −80° C. In addition to measurements of the length of each hair, the general morphology of each hair was analysed and the expression of laminin 5 and collagen IV, two constituents of the basal membrane, was evaluated. […]

[3] = tested on: isolated human hair explants (hair follicles); experiment: Growth (length) of isolated human hairs maintained in ex vivo survival; assay type: cell-based
Experimental: as §1, §2, §3, §4
Hairs were photographed using a microscope and a CCD camera coupled to acquisition software and archiving.
Each hair was measured on D0, D3, D6, D8, D10, D13 and D15 using a LEICA IM1000 measurement module to give measurements in μm.
Each hair was photographed and its length evaluated using software giving values in μm.

collagen IV = experiment: Immunolabeling of basal membrane collagen (type IV) on frozen cuts of isolated hairs; assay type: cell-based, human
Experimental: as §1, §2, §3, §4, §5, §6, §7
Immunolabeling of type IV collagen was carried out on frozen cuts of the control hairs and hairs treated with AcSDKP or Minoxidil® in order to quantify this constituent of the basal membrane which separates the dermal compartment from the epithelial compartment.

Structure (SMILES) | Increase in number of cells in mitosis compared to control hair ([1]; 10^−10 M, D8 of treatment) | Average number of cells in mitosis per mm of hair ([1]; AcSDKP 10^−7 M, D8) | Number of cells in mitosis in treated hair compared to control hair ([1]; three concentrations tested (10^−4 M, 10^−7 M, 10^−10 M)) | Increase in CK19 levels (keratin 19 (CK19); D8 and D15, AcSDKP 10^−10 M) | Expression of CK19 compared to control hair and Minoxidil-treated hair (keratin 19 (CK19); hair kept in survival in presence of the tetrapeptide) | Restructuring of the epithelial sheaths ([2]; AcSDKP in the culture medium, as of D8 of treatment) | Adherence of epithelial sheaths to collagen ([2]; D8, AcSDKP 10^−4 M) | Neo-keratinocyte sites ([2]; D8, AcSDKP 10^−4 M) | Adherence of epithelium to the underlying collagen ([2]; D8, the two active concentrations (10^−7 M and 10^−10 M)) | Neo-keratinocyte structure thickness ([2]; D15, AcSDKP 10^−4 M, 10^−7 M and especially 10^−10 M) | Laminin 5 increase in the median zone of hair (laminin 5; D8, AcSDKP 10^−10 M) | Expression of laminin 5 (laminin 5; D15, AcSDKP 10^−7 M) | Hair growth (length of hair) ([3]; 10^−10 M in culture medium, D15 of treatment) | Hair growth (length of hair shafts) ([3]; higher concentrations (10^−4 M, 10^−7 M), D15) | Increase in collagen IV levels (collagen IV; D8 and D15, AcSDKP 10^−10 M) | Collagen IV expression in the bulb and median section of hair (collagen IV; as of D8, AcSDKP at the three concentrations tested) | Adherence of epithelial sheaths to collagen ([2]; D8, Minoxidil) | Neo-keratinocyte sites ([2]; D8, Minoxidil 10 μM) | Neo-keratinocyte structure compared to untreated hair ([2]; D15, Minoxidil 10^−5 M) | Collagen IV expression (collagen IV; hair treated with Minoxidil)
CC(=O)N[C@@H](CO)C(=O)N[C@@H](CC(=O)O)C(=O)N[C@@H](CCCCN)C(=O)N1CCC[C@H]1C(=O)O [AcSDKP, CH3CO-Ser-Asp-Lys-Pro-OH] (Ac-SDKP-OH) | +300% | 34 per mm of hair | significantly increases the number of cells in mitosis | maximal | significantly greater | leads to restructuring of the epithelial sheaths | more or less detached | absent | adheres fully | increasingly thicker | considerably more marked | higher | significantly stimulates hair growth | no significant difference | all the more marked | very clear increase in collagen IV |  |  |  | 
Nc1cc(N2CCCCC2)nc(N)[n+]1[O-] [Minoxidil ®, 2,4-diamino 6-piperidinopyrimidine 3-oxide, reference compound] |  |  |  |  |  |  |  |  |  |  |  |  |  |  |  |  | more or less detached | absent | slightly more structured | often less evident
